Measurements: patent US20260217767A1, “NOVEL A4B7 THIOETHER PEPTIDE DIMER ANTAGONISTS” (Protagonist Therapeutics, Inc., priority 2014, published 2026)
*1 amine or outer side, *2 acyl side, *3 side chain or, on linkers, in order; H or OH if unused. Where a SMILES comes first, the peptide text is derived from it. Bridges are numbered along the chain shown (N, C = ends). Roman numbers before positions name the chains, in order. [ ]: non-standard residue; d: D form. Diglycolyl = O=C(COCC(=O)[*:2])[*:1]; NMeR = CN[C@@H](CCCNC(=N)N)C(=O)O; X1 = O=C(c1ccccc1C[*:2])[*:1]; Pen = CC(C)(S)[C@H](N)C(=O)O

What follows are compounds tested against T1, rh integrin α4β7 (Homo sapiens, UniProt P13612+P26010) (assay: α4β7-MAdCAM Competition ELISA). Conditions: thioether monomer peptides, Table 6; read-out: ELISA A4B7.
T1 construct: purchased R&D Systems 5397-A30
T1 sequence (P13612 34-977 limits assumed): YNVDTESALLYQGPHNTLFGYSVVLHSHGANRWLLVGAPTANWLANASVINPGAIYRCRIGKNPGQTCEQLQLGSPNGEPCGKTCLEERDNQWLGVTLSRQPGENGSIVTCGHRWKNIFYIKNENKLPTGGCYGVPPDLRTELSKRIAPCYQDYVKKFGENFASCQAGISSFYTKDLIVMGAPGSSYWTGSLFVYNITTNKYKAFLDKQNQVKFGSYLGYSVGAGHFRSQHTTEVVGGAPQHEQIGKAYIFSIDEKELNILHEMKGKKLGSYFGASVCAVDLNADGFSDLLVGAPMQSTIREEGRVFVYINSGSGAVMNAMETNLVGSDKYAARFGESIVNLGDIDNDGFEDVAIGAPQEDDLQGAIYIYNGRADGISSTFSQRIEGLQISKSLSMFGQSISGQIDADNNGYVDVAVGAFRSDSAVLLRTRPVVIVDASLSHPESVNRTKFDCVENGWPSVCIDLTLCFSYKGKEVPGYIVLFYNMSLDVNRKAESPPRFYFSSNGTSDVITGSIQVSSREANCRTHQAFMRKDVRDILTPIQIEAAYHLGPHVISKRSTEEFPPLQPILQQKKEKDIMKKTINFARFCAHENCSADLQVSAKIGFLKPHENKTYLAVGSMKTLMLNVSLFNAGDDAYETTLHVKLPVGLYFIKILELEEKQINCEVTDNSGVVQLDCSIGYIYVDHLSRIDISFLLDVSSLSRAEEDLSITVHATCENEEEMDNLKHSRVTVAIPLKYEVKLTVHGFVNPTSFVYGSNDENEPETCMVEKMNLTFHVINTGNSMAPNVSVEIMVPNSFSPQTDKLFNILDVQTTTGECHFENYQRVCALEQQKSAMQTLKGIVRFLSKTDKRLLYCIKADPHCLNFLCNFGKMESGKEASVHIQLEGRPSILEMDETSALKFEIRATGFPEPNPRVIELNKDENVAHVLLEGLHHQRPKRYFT
T1 sequence (P26010 20-723 limits assumed): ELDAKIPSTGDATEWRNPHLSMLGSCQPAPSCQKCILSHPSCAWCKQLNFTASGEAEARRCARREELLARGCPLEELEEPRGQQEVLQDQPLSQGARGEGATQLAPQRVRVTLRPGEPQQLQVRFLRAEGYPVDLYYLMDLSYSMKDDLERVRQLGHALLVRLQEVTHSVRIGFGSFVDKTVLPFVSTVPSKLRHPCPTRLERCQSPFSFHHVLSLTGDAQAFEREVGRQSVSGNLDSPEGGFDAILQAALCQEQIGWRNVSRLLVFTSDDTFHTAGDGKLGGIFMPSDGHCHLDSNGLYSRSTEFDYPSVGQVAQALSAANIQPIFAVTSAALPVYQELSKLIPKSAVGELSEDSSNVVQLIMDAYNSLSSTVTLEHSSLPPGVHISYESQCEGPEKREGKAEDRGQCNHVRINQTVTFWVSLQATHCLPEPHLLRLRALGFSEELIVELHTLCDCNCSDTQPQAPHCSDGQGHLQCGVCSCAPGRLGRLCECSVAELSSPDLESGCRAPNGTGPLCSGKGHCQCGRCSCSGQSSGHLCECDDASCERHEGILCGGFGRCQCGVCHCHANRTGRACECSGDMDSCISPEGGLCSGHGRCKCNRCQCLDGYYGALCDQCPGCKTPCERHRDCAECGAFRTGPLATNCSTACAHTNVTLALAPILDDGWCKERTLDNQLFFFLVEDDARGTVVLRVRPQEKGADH
Format: binding
How it was run: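 Recombinant human α4β7 captured on nickel-coated plates, then incubated 1 h at room temperature with serially diluted peptides (final top 10 μM) and 10 nM final MAdCAM-1 in Tris pH 7.6 buffer with 1 mM MnCl2 or MgCl2. Bound MAdCAM-1 detected with anti-human IgG1-HRP and TMB, absorbance at 450 nm.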
Compound `CC(C)C[C@@H]1NC(=O)[C@H]([C@@H](C)O)NC(=O)[C@H](CC(=O)O)NC(=O)[C@H](CO)NC(=O)[C@H](CCCNC(=N)N)N(C)C(=O)c2ccccc2CSC(C)(C)[C@@H](C(=O)N[C@@H](Cc2c[nH]c3ccccc23)C(=O)N[C@H](CCC(=O)O)C(=O)N[C@H](CO)C(N)=O)NC1=O` [compound 106] (HELM PEPTIDE1{[meR].S.D.T.L.[Pen].W.[dE].[dS].[am]}|CHEM1{[O=C(c1ccccc1C[*:2])[*:1]]}$PEPTIDE1,CHEM1,1:R1-1:R1|PEPTIDE1,CHEM1,6:R3-1:R2$$$V2.0) has an IC50 of under 25 nM.
In the case of `CC(C)C[C@@H]1NC(=O)[C@H]([C@@H](C)O)NC(=O)[C@H](CC(=O)O)NC(=O)[C@H](CO)NC(=O)[C@H](CCCNC(=N)N)N(C)C(=O)c2ccccc2CSC(C)(C)[C@@H](C(=O)N[C@@H](Cc2c[nH]c3ccccc23)C(=O)N[C@@H](CCC(=O)O)C(=O)N[C@@H](CN)C(N)=O)NC1=O` [compound 92] (HELM PEPTIDE1{[meR].S.D.T.L.[Pen].W.E.[NC[C@H](N[*:1])C(=O)[*:2]].[am]}|CHEM1{[O=C(c1ccccc1C[*:2])[*:1]]}$PEPTIDE1,CHEM1,1:R1-1:R1|PEPTIDE1,CHEM1,6:R3-1:R2$$$V2.0), the IC50 is reported as under 25 nM.
`CC(C)C[C@@H]1NC(=O)[C@H]([C@@H](C)O)NC(=O)[C@H](CC(=O)O)NC(=O)[C@H](CO)NC(=O)[C@H](CCCNC(=N)N)N(C)C(=O)c2ccccc2CSC(C)(C)[C@@H](C(=O)N[C@@H](Cc2c[nH]c3ccccc23)C(=O)N[C@H](CCC(=O)O)C(=O)N[C@@H](CCN)C(N)=O)NC1=O` [compound 95] (HELM PEPTIDE1{[meR].S.D.T.L.[Pen].W.[dE].[Dab].[am]}|CHEM1{[O=C(c1ccccc1C[*:2])[*:1]]}$PEPTIDE1,CHEM1,1:R1-1:R1|PEPTIDE1,CHEM1,6:R3-1:R2$$$V2.0) gave an IC50 of under 25 nM.
For `CC(C)C[C@@H]1NC(=O)[C@H]([C@@H](C)O)NC(=O)[C@H](CC(=O)O)NC(=O)[C@H](CO)NC(=O)[C@H](CCCNC(=N)N)N(C)C(=O)c2ccccc2CSC(C)(C)[C@@H](C(=O)N[C@@H](Cc2c[nH]c3ccccc23)C(=O)N[C@H](CCC(=O)O)C(=O)N[C@H](Cc2ccc(O)cc2)C(N)=O)NC1=O` [compound 110] (HELM PEPTIDE1{[meR].S.D.T.L.[Pen].W.[dE].[dY].[am]}|CHEM1{[O=C(c1ccccc1C[*:2])[*:1]]}$PEPTIDE1,CHEM1,1:R1-1:R1|PEPTIDE1,CHEM1,6:R3-1:R2$$$V2.0), the IC50 was under 25 nM.
For `CC(=O)NCCCC[C@@H](NC(=O)[C@H](CCC(=O)O)NC(=O)[C@H](Cc1c[nH]c2ccccc12)NC(=O)[C@H]1NC(=O)[C@H](CC(C)C)NC(=O)[C@H]([C@@H](C)O)NC(=O)[C@H](CC(=O)O)NC(=O)[C@H](CO)NC(=O)[C@H](CCCNC(=N)N)N(C)C(=O)c2ccccc2CSC1(C)C)C(N)=O` [compound 80] (HELM PEPTIDE1{[meR].S.D.T.L.[Pen].W.E.[dK].[am]}|PEPTIDE2{[ac]}|CHEM1{[O=C(c1ccccc1C[*:2])[*:1]]}$PEPTIDE1,PEPTIDE2,9:R3-1:R2|PEPTIDE1,CHEM1,1:R1-1:R1|PEPTIDE1,CHEM1,6:R3-1:R2$$$V2.0), the IC50 was under 25 nM.
`CC(C)C[C@@H]1NC(=O)[C@H]([C@@H](C)O)NC(=O)[C@H](CC(=O)O)NC(=O)[C@H](CO)NC(=O)[C@H](CCCNC(=N)N)N(C)C(=O)c2ccccc2CSC(C)(C)[C@@H](C(=O)N[C@@H](Cc2c[nH]c3ccccc23)C(=O)N[C@H](CCC(=O)O)C(=O)N[C@@H](Cc2c[nH]cn2)C(N)=O)NC1=O` [compound 102] (HELM PEPTIDE1{[meR].S.D.T.L.[Pen].W.[dE].H.[am]}|CHEM1{[O=C(c1ccccc1C[*:2])[*:1]]}$PEPTIDE1,CHEM1,1:R1-1:R1|PEPTIDE1,CHEM1,6:R3-1:R2$$$V2.0) showed an IC50 of under 25 nM.
In the case of `CC(C)C[C@@H]1NC(=O)[C@H]([C@@H](C)O)NC(=O)[C@H](CC(=O)O)NC(=O)[C@H](CO)NC(=O)[C@H](CCCNC(=N)N)N(C)C(=O)c2ccccc2CSC(C)(C)[C@@H](C(=O)N[C@@H](Cc2ccc3ccccc3c2)C(=O)N[C@H](CCC(=O)O)C(N)=O)NC1=O` [compound 114] (HELM PEPTIDE1{[meR].S.D.T.L.[Pen].[O=C([C@H](Cc1ccc2ccccc2c1)N[*:1])[*:2]].[dE].[am]}|CHEM1{[O=C(c1ccccc1C[*:2])[*:1]]}$PEPTIDE1,CHEM1,1:R1-1:R1|PEPTIDE1,CHEM1,6:R3-1:R2$$$V2.0), the IC50 is reported as under 25 nM.
`CC(=O)NCCCC[C@@H](NC(=O)[C@H](CCC(=O)O)NC(=O)[C@H](Cc1cccc2ccccc12)NC(=O)[C@H]1NC(=O)[C@H](CC(C)C)NC(=O)[C@H]([C@@H](C)O)NC(=O)[C@H](CC(=O)O)NC(=O)[C@H](CO)NC(=O)[C@H](CCCNC(=N)N)N(C)C(=O)c2ccccc2CSC1(C)C)C(N)=O` [compound 89] (HELM PEPTIDE1{[meR].S.D.T.L.[Pen].[O=C([C@H](Cc1cccc2ccccc12)N[*:1])[*:2]].E.[dK].[am]}|PEPTIDE2{[ac]}|CHEM1{[O=C(c1ccccc1C[*:2])[*:1]]}$PEPTIDE1,PEPTIDE2,9:R3-1:R2|PEPTIDE1,CHEM1,1:R1-1:R1|PEPTIDE1,CHEM1,6:R3-1:R2$$$V2.0) was tested, and the IC50 was under 25 nM.
Compound `CC(C)C[C@@H]1NC(=O)[C@H]([C@@H](C)O)NC(=O)[C@H](CC(=O)O)NC(=O)[C@H](CO)NC(=O)[C@H](CCCNC(=N)N)N(C)C(=O)c2ccccc2CSC(C)(C)[C@@H](C(=O)N[C@@H](Cc2c[nH]c3ccccc23)C(=O)N[C@H](CCC(=O)O)C(=O)N[C@@H](Cc2ccccc2)C(N)=O)NC1=O` [compound 101] (HELM PEPTIDE1{[meR].S.D.T.L.[Pen].W.[dE].F.[am]}|CHEM1{[O=C(c1ccccc1C[*:2])[*:1]]}$PEPTIDE1,CHEM1,1:R1-1:R1|PEPTIDE1,CHEM1,6:R3-1:R2$$$V2.0) has an IC50 of under 25 nM.

Same assay, conditions: thioether peptide dimers, Table 7; read-out: ELISA A4B7
`CC(C)C[C@@H]1NC(=O)[C@H]([C@@H](C)O)NC(=O)[C@H](CC(=O)O)NC(=O)[C@H](CO)NC(=O)[C@H](CCCNC(=N)N)N(C)C(=O)c2ccccc2CSC(C)(C)[C@@H](C(=O)N[C@@H](Cc2ccccc2)C(=O)N[C@H](CCC(=O)O)C(=O)N[C@H](CCCCNC(=O)COCC(=O)NCCCC[C@@H](NC(=O)[C@@H](CCC(=O)O)NC(=O)[C@H](Cc2ccccc2)NC(=O)[C@H]2NC(=O)[C@H](CC(C)C)NC(=O)[C@H]([C@@H](C)O)NC(=O)[C@H](CC(=O)O)NC(=O)[C@H](CO)NC(=O)[C@H](CCCNC(=N)N)N(C)C(=O)c3ccccc3CSC2(C)C)C(=O)O)C(=O)O)NC1=O` [compound 204] (I: [NMeR]SDTL[Pen]F[dE][dK]-OH / II: [NMeR]SDTL[Pen]F[dE][dK]-OH; linker I:9-II:9 via Diglycolyl; linker I:N-I:6, II:N-II:6 via X1) showed an IC50 of under 25 nM.
In the case of `CC(C)C[C@@H]1NC(=O)[C@H]([C@@H](C)O)NC(=O)[C@H](CC(=O)O)NC(=O)[C@H](CO)NC(=O)[C@H](CCCNC(=N)N)N(C)C(=O)c2ccccc2CSC(C)(C)[C@@H](C(=O)N[C@@H](Cc2c[nH]c3ccccc23)C(=O)N[C@H](CCC(=O)O)C(=O)N[C@H](CCCCNC(=O)COCC(=O)NCCCC[C@@H](NC(=O)[C@@H](CCC(=O)O)NC(=O)[C@H](Cc2c[nH]c3ccccc23)NC(=O)[C@H]2NC(=O)[C@H](CC(C)C)NC(=O)[C@H]([C@@H](C)O)NC(=O)[C@H](CC(=O)O)NC(=O)[C@H](CO)NC(=O)[C@H](CCCNC(=N)N)N(C)C(=O)c3ccccc3CSC2(C)C)C(=O)O)C(=O)O)NC1=O` [compound 209] (I: [NMeR]SDTL[Pen]W[dE][dK]-OH / II: [NMeR]SDTL[Pen]W[dE][dK]-OH; linker I:9-II:9 via Diglycolyl; linker I:N-I:6, II:N-II:6 via X1), the IC50 is reported as under 25 nM.
